Laboratory results published in US6670382B2, “Hydroxyformamidine derivatives and medicines containing the same” (Taisho Pharmaceutical Co., Ltd., priority 2000, dated 2003).

Key:
[1] = tested on: 20-HETE synthase derived from rat kidney microsome; assay: Inhibitory effect of 20-HETE synthase derived from rat kidney microsome; type: biochemical; conditions: SHR rat kidney microsome; for IC50: concentration at which 20-HETE production was inhibited to 50%; for Inhibition (1 µM): inhibition rate of 20-HETE production, subject compound 1 μM, 3H-arachidonic acid, NADPH, 1.5 hours at 37° C., pH 7.4
Description: [Inhibitory Effect of 20-HETE Synthase Derived from Rat Kidney Microsome]
Regarding the compounds listed in the Table described above, their inhibitory activities on production of 20-HETE were examined.
This examination was carried out based on the method described in J. Pharmacol. Exp. Ther., Vol. 268, p. 474 (1994).
The subject compound in an amount of 1 μM was added to a 50 mM of 3-morpholinopropanesulfonic acid buffer (MOPS) (pH 7.4), containing 5 mM of magnesium chloride, and 1 mM of ethylenediaminetetraacetic acid (EDTA) disodium salt.
Subsequently, the rat kidney microsome fraction prepared from the kidney of a spontaneously hypertensive rat (male, 6 weeks of age) as an enzyme, [5,6,8,9,11,12,14,15] tritium-arachidonic acid (supplied by Amasham) as a substrate, and NADPH (supplied by Sigma) as a coenzyme were added, and were reacted for 1.5 hours at 37° C.
After the reaction was quenched by adding formic acid (supplied by Wako Pure Chemical Industries Ltd.) to the reaction solution, acetonitrile (final concentration of 50%) was added thereto, and the mixture was allowed to stand for 1.5 hours at room temperature. The amount of 20-HETE production was measured by using a high performance liquid chromatography having a detector for radioactive substances (supplied by Gilson), equipped with an ODS column (Biocyl C18, supplied by Bio-rad).
Setting an amount of 20-HETE production to 100% when no subject compound was added, the inhibition rate (%) was calculated from the amount of 20-HETE production when a subject compound was added.
In addition, setting an amount of 20-HETE production to 100% when no subject compound was added, the concentration of the subject compound at which the production of the 20-HETE was inhibited to 50% when the subject compound is added (IC50 value) was also calculated.

Row | Structure (SMILES) | IC50 [1] [nM] | Inhibition (1 µM) [1] [%] | melting point
1 | O/N=C/Nc1ccc(OCc2ccco2)nc1 [Comp. 3] | 49.6 | 102.0 | –
2 | O/N=C/Nc1ccc(OCCc2ccccn2)nc1 [Comp. 5] | 14.9 | – | 128.5 to 130 °C
3 | O/N=C/Nc1ccc(OCc2ccccn2)nc1 [Comp. 6, N-[2-(pyridin-2-ylmethoxy)pyridin-5-yl]-N′-hydroxyformamidine] | – | – | 153.5 to 155.5 °C
4 | COCCOc1ccc(N/C=N/O)cn1 [Comp. 7] | 781 | 41.9 | 104.5 to 106 °C
5 | CC(C)Oc1ccc(N/C=N/O)cn1 [Comp. 8] | 603 | 71.0 | 116.5 to 117 °C
6 | O/N=C/Nc1ccc(OCc2ccccc2)nc1 [Comp. 9] | 9.1 | 82.9 | 163.5 to 164 °C
7 | CCCCOc1ccc(N/C=N/O)cn1 [Comp. 10] | 167 | 106.3 | 127 to 128 °C
8 | O/N=C/Nc1ccc(OCC2CCCCC2)nc1 [Comp. 11] | 2.7 | 89.0 | –
9 | COCCOCCOc1ccc(N/C=N/O)cn1 [Comp. 12] | 87.2 | 99.0 | –
10 | CC1(C)OCC(COc2ccc(N/C=N/O)cn2)O1 (centres unmarked) [Comp. 13] | 24 | 101.0 | –
11 | O/N=C/Nc1ccc(OCCCc2ccccc2)nc1 [Comp. 14] | 1.5 | 104.0 | –
12 | O/N=C/Nc1ccc(OCc2cccs2)nc1 [Comp. 15] | 9.3 | 100.0 | –
13 | CCN(CC)CCOc1ccc(N/C=N/O)cn1 [Comp. 16] | – | 60.0 | –
14 | Cc1ncsc1CCOc1ccc(N/C=N/O)cn1 [Comp. 17] | 2.1 | 100.0 | –
15 | CC(C)=CCOc1ccc(N/C=N/O)cn1 [Comp. 18] | – | 86.0 | –
16 | CC(C)OCCOc1ccc(N/C=N/O)cn1 [Comp. 19] | – | 104.0 | –
17 | C#CCCOc1ccc(N/C=N/O)cn1 [Comp. 20] | – | 31.0 | –
18 | O/N=C/Nc1ccc(OCC2CC2)nc1 [Comp. 21] | – | 73.0 | –
19 | O/N=C/Nc1ccc(OCCC2CCCCC2)nc1 [Comp. 22] | 2.1 | 108.0 | –
20 | O/N=C/Nc1ccc(OCc2ccncc2)nc1 [Comp. 23] | 3.9 | 104.0 | –
21 | O/N=C/Nc1ccc(OCCSc2ccccn2)nc1 [Comp. 25] | 9.6 | 71.0 | –

Row | Structure (SMILES) | IC50 [1] [nM] | Inhibition (1 µM) [1] [%] | melting point
22 | O/N=C/Nc1ccc(OCC2CCC2)nc1 [Comp. 26] | 27.2 | 99.0 | –
23 | O/N=C/Nc1ccc(OCCOC2CCCCC2)nc1 [Comp. 27] | – | 71.0 | –
24 | CCSCCOc1ccc(N/C=N/O)cn1 [Comp. 28] | 9.9 | 105.0 | –
25 | O/N=C/Nc1ccc(OCCCCC2CCCCC2)nc1 [Comp. 29] | – | 101.0 | –
26 | CC(C)(C)CCOc1ccc(N/C=N/O)cn1 [Comp. 30] | – | 102.0 | –
27 | O/N=C/Nc1ccc(OCCCc2cccnc2)nc1 [Comp. 33] | 2.1 | 93.0 | –
28 | CC1(C)COC(CCOc2ccc(N/C=N/O)cn2)OC1 [Comp. 34] | 7.6 | 89.0 | –
29 | O/N=C/Nc1ccc(OCC2CC3CCC2C3)nc1 (centres unmarked) [Comp. 35] | – | 98.0 | –
30 | O/N=C/Nc1ccc(OCCCOc2ccccc2)nc1 [Comp. 36] | 2.7 | 104.0 | –
31 | O/N=C/Nc1ccc(OCCCc2ccncc2)nc1 [Comp. 37] | 3.4 | 96.0 | –
32 | O/N=C/Nc1ccc(OCc2ccsc2)nc1 [Comp. 38] | 8.5 | 95.0 | –
33 | CC(C)(C)COc1ccc(N/C=N/O)cn1 [Comp. 39] | – | 62.0 | –
34 | O/N=C/Nc1ccc(OCc2ccoc2)nc1 [Comp. 40] | – | 86.0 | –
35 | Cc1cccc(COc2ccc(N/C=N/O)cn2)n1 [Comp. 41] | – | 83.0 | –
36 | CCCCCCOc1ccc(N/C=N/O)cn1 [Comp. 42] | – | 105.8 | –
37 | CCCCCCCOc1ccc(N/C=N/O)cn1 [Comp. 43] | – | 89.5 | –
38 | CCCCCCCCOc1ccc(N/C=N/O)cn1 [Comp. 44] | – | 100.7 | –
39 | C/C=C/COc1ccc(N/C=N/O)cn1 [Comp. 45] | 10.7 | 80.3 | 143 to 144.5 °C
40 | CCC(C)CCOc1ccc(N/C=N/O)cn1 (centres unmarked) [Comp. 48] | – | 102.8 | –
41 | CC(C)CCCOc1ccc(N/C=N/O)cn1 [Comp. 49] | – | 107.1 | –
42 | O/N=C/Nc1ccc(OCCCCCc2ccccc2)nc1 [Comp. 50] | – | 108.2 | –

Row | Structure (SMILES) | IC50 [1] [nM] | Inhibition (1 µM) [1] [%] | melting point
43 | CC(C)=CCC/C(C)=C\COc1ccc(N/C=N/O)cn1 [Comp. 51] | – | 111.0 | –
44 | CC(C)=CCC/C(C)=C/COc1ccc(N/C=N/O)cn1 [Comp. 52] | – | 108.7 | –
45 | O/N=C/Nc1ccc(OCC2CCCCCC2)nc1 [Comp. 57] | – | 114.2 | –
46 | C/C=C/C=C/COc1ccc(N/C=N/O)cn1 [Comp. 58] | – | 106.6 | –
47 | Cc1ccc(CCOc2ccc(N/C=N/O)cn2)cc1 [Comp. 60] | – | 109.9 | –
48 | CC(=O)OCCOc1ccc(N/C=N/O)cn1 [Comp. 62] | – | 112.8 | –
49 | COc1ccc(CCCOc2ccc(N/C=N/O)cn2)cc1OC [Comp. 63] | – | 102.3 | –
50 | COc1ccc(CCCOc2ccc(N/C=N/O)cn2)cc1 [Comp. 64] | – | 100.7 | –
51 | O/N=C/Nc1ccc(OCCc2ccc(Br)cc2)nc1 [Comp. 67] | – | 108.6 | –
52 | CCOC(=O)CCCCCOc1ccc(N/C=N/O)cn1 [Comp. 68] | – | 102.6 | –
53 | CC(C)=CCCC(C)CCOc1ccc(N/C=N/O)cn1 (centres unmarked) [Comp. 70] | – | 108.1 | –
54 | O/N=C/Nc1ccc(OCCCCc2ccccc2)nc1 [Comp. 71] | – | 99.0 | –
55 | O/N=C/Nc1ccc(OCc2ccc(Cl)cc2Cl)nc1 [Comp. 74] | – | 69.3 | –
56 | O/N=C/Nc1ccc(OCc2ccccc2CCc2ccccc2)nc1 [Comp. 75] | – | 88.5 | –
57 | O/N=C/Nc1ccc(OCc2cccc(Oc3ccccc3)c2)nc1 [Comp. 76] | – | 100.2 | –
58 | Cc1cccc(COc2ccc(N/C=N/O)cn2)c1 [Comp. 79] | – | 100.6 | –
59 | COC(=O)c1ccc(COc2ccc(N/C=N/O)cn2)cc1 [Comp. 83] | – | 98.8 | –
60 | O/N=C/Nc1ccc(OCc2ccc(-c3ccccc3)cc2)nc1 [Comp. 84] | – | 105.3 | –
61 | CCN(CCOc1ccc(N/C=N/O)cn1)c1cccc(C)c1 [Comp. 85] | – | 100.8 | –
62 | COC(=O)COc1ccc(N/C=N/O)cn1 [Comp. 86] | – | 82.6 | –
63 | Cn1c(=O)c2c(ncn2CCOc2ccc(N/C=N/O)cn2)n(C)c1=O [Comp. 88] | – | 71.8 | –

Row | Structure (SMILES) | IC50 [1] [nM] | Inhibition (1 µM) [1] [%] | melting point
64 | O/N=C/Nc1ccc(OCCn2cccc2)nc1 [Comp. 90] | 4.3 | 105.7 | –
65 | O/N=C/Nc1ccc(OCCSc2ccccc2)nc1 [Comp. 95] | – | 96.5 | –
66 | O/N=C/Nc1ccc(SCc2ccc(Cl)cc2)nc1 [Comp. 100] | – | 79.5 | –
67 | O/N=C/Nc1ccc(SC2CCCCC2)nc1 [Comp. 101] | – | 91.8 | –
68 | CCOC(=O)CSc1ccc(N/C=N/O)cn1 [Comp. 103] | – | 79.9 | –
69 | CCCCSc1ccc(N/C=N/O)cn1 [Comp. 105] | – | 100.5 | –
70 | CC(C)CCSc1ccc(N/C=N/O)cn1 [Comp. 106] | – | 77.5 | –
71 | COC(=O)CSc1ccc(N/C=N/O)cn1 [Comp. 108] | – | 89.7 | –
72 | CCCCCSc1ccc(N/C=N/O)cn1 [Comp. 112] | – | 101.5 | –
73 | CCCCCCSc1ccc(N/C=N/O)cn1 [Comp. 113] | – | 81.3 | –
74 | CCCCCCCSc1ccc(N/C=N/O)cn1 [Comp. 114] | – | 85.1 | –
75 | CCCCCCCCCSc1ccc(N/C=N/O)cn1 [Comp. 115] | – | 89.0 | –
76 | COC(=O)CCSc1ccc(N/C=N/O)cn1 [Comp. 116] | – | 93.1 | –
77 | CCOC(=O)CCSc1ccc(N/C=N/O)cn1 [Comp. 118] | – | 100.7 | –
78 | CCN(CC)CCOCCOc1ccc(N/C=N/O)cn1 [Comp. 122] | 624 | 99.6 | –
79 | CN(C)CCSc1ccc(N/C=N/O)cn1 [Comp. 126] | – | – | 153.5 to 154.5 °C
80 | CCN(CC)CCC(Oc1ccc(N/C=N/O)cn1)C(F)(F)F (centres unmarked) [Comp. 129] | – | – | 109 to 111 °C
81 | CCN(CC)CCCC(C)Oc1ccc(N/C=N/O)cn1 (centres unmarked) [Comp. 130] | – | – | 122 °C (dec.)
82 | CN(C)CCOc1ccc(N/C=N/O)cn1 [Comp. 131] | – | – | 105 to 106 °C
83 | CC(C)(COc1ccc(N/C=N/O)cn1)CN1CCCCC1 [Comp. 134] | – | – | 91 to 93 °C
